Data on 5 compounds can be found in PubChem BioAssay AID1918991 (Molecular Pharmacology Branch, DTP, NCI, 2023).
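Further: spheroids exposed to compounds for seven days before the viability read.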
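Wherever viability, T/C is given: luminescent signal used as a stand-in for viable cell amount; 100% = DMSO vehicle control wells.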

In the first test the test system is 186277-243-T-J2-PDC complex spheroid growth. Put plainly: Anticancer human tumor 186277-243-T-J2-PDC patient-derived colon adenocarcinoma cell line growth inhibition [AhR]. The settings on record: curve of first compound; second compound 0.1 µM. Put shortly:
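Complex tumor spheroids co-cultured with HUVEC and human MSC stroma; AhR antagonists tested in combination with standard-of-care and investigational agents. Top concentration at or near clinical Cmax (else 10 microM), half-log dilutions; growth expressed as percent test/control.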
On to `CC(C)c1c(-c2ccccc2)nc2c(C#N)c[nH]n2c1=O` + Cc1ccccc1N=Nc1ccc(NC(=O)c2ccnn2C)c(C)c1, for which the IC50 (commonly the concentration that gives 50% inhibition) was over 10000 nM.

In the case of `CC1COCCN1c1cc(-c2ccnn2C)c2ccnc(-c3ccn[nH]3)c2n1` (stereo not drawn) + Cc1ccccc1N=Nc1ccc(NC(=O)c2ccnn2C)c(C)c1, the IC50 came out at 81.8 nM.

For the compound `COc1ccc([C@@H](O)c2cc(-c3ncnc4cc(N5CCOCC5)ccc34)c(F)cc2Cl)nn1` + Cc1ccccc1N=Nc1ccc(NC(=O)c2ccnn2C)c(C)c1, the IC50 was over 10000 nM.

In the case of `COc1cccc2c1C(=O)c1c(O)c3c(c(O)c1C2=O)CC(O)(C(=O)CO)CC3OC1CC(N)C(O)C(C)O1` (stereo not drawn) + Cc1cncc(-c2nc(NCCc3c[nH]c4ccccc34)c3ncn(C(C)C)c3n2)c1, the IC50 stood at 200 nM.

In the case of `Nc1ncn(C2CC(O)C(CO)O2)c(=O)n1` (stereo not drawn) + Cc1cncc(-c2nc(NCCc3c[nH]c4ccccc34)c3ncn(C(C)C)c3n2)c1, the IC50 is over 1000 nM.

Still in this test, the particulars now being: curve of first compound; second compound 0.316 µM.
For the compound `CC(C)c1c(-c2ccccc2)nc2c(C#N)c[nH]n2c1=O` + Cc1ccccc1N=Nc1ccc(NC(=O)c2ccnn2C)c(C)c1, the IC50 was over 10000 nM.

`CC1COCCN1c1cc(-c2ccnn2C)c2ccnc(-c3ccn[nH]3)c2n1` (stereo not drawn) + Cc1ccccc1N=Nc1ccc(NC(=O)c2ccnn2C)c(C)c1: the IC50 was 84.5 nM.

Take `COc1ccc([C@@H](O)c2cc(-c3ncnc4cc(N5CCOCC5)ccc34)c(F)cc2Cl)nn1` + Cc1ccccc1N=Nc1ccc(NC(=O)c2ccnn2C)c(C)c1: the IC50 is over 10000 nM.

`COc1cccc2c1C(=O)c1c(O)c3c(c(O)c1C2=O)CC(O)(C(=O)CO)CC3OC1CC(N)C(O)C(C)O1` (stereo not drawn) + Cc1cncc(-c2nc(NCCc3c[nH]c4ccccc34)c3ncn(C(C)C)c3n2)c1: the IC50 amounted to 171 nM.

In the case of `Nc1ncn(C2CC(O)C(CO)O2)c(=O)n1` (stereo not drawn) + Cc1cncc(-c2nc(NCCc3c[nH]c4ccccc34)c3ncn(C(C)C)c3n2)c1, the IC50 was over 1000 nM.

Staying with this test, now noted: curve of first compound; second compound 1 µM.
With `CC(C)c1c(-c2ccccc2)nc2c(C#N)c[nH]n2c1=O` + Cc1ccccc1N=Nc1ccc(NC(=O)c2ccnn2C)c(C)c1, the IC50 is over 10000 nM.

As to `CC1COCCN1c1cc(-c2ccnn2C)c2ccnc(-c3ccn[nH]3)c2n1` (stereo not drawn) + Cc1ccccc1N=Nc1ccc(NC(=O)c2ccnn2C)c(C)c1, the IC50 stood at 88.8 nM.

As for `COc1ccc([C@@H](O)c2cc(-c3ncnc4cc(N5CCOCC5)ccc34)c(F)cc2Cl)nn1` + Cc1ccccc1N=Nc1ccc(NC(=O)c2ccnn2C)c(C)c1, the IC50 was over 10000 nM.

With `COc1cccc2c1C(=O)c1c(O)c3c(c(O)c1C2=O)CC(O)(C(=O)CO)CC3OC1CC(N)C(O)C(C)O1` (stereo not drawn) + Cc1cncc(-c2nc(NCCc3c[nH]c4ccccc34)c3ncn(C(C)C)c3n2)c1, the half-inhibitory concentration (IC50) was 163 nM.

In the case of `Nc1ncn(C2CC(O)C(CO)O2)c(=O)n1` (stereo not drawn) + Cc1cncc(-c2nc(NCCc3c[nH]c4ccccc34)c3ncn(C(C)C)c3n2)c1, the IC50 was over 1000 nM.

Still in this test, the particulars now being: curve of first compound; second compound 3.16 µM.
As to `CC(C)c1c(-c2ccccc2)nc2c(C#N)c[nH]n2c1=O` + Cc1ccccc1N=Nc1ccc(NC(=O)c2ccnn2C)c(C)c1, the IC50 was over 10000 nM.

As for `CC1COCCN1c1cc(-c2ccnn2C)c2ccnc(-c3ccn[nH]3)c2n1` (stereo not drawn) + Cc1ccccc1N=Nc1ccc(NC(=O)c2ccnn2C)c(C)c1, the IC50 amounted to 75.2 nM.

For `COc1ccc([C@@H](O)c2cc(-c3ncnc4cc(N5CCOCC5)ccc34)c(F)cc2Cl)nn1` + Cc1ccccc1N=Nc1ccc(NC(=O)c2ccnn2C)c(C)c1, the IC50 was over 10000 nM.

As to `COc1cccc2c1C(=O)c1c(O)c3c(c(O)c1C2=O)CC(O)(C(=O)CO)CC3OC1CC(N)C(O)C(C)O1` (stereo not drawn) + Cc1cncc(-c2nc(NCCc3c[nH]c4ccccc34)c3ncn(C(C)C)c3n2)c1, the IC50 was found to be 126 nM.

With `Nc1ncn(C2CC(O)C(CO)O2)c(=O)n1` (stereo not drawn) + Cc1cncc(-c2nc(NCCc3c[nH]c4ccccc34)c3ncn(C(C)C)c3n2)c1, the IC50 was over 1000 nM.

Still in this test, the particulars now being: curve of first compound; second compound 10 µM.
Consider `CC(C)c1c(-c2ccccc2)nc2c(C#N)c[nH]n2c1=O` + Cc1ccccc1N=Nc1ccc(NC(=O)c2ccnn2C)c(C)c1, for which the IC50 is over 10000 nM.

In the case of `CC1COCCN1c1cc(-c2ccnn2C)c2ccnc(-c3ccn[nH]3)c2n1` (stereo not drawn) + Cc1ccccc1N=Nc1ccc(NC(=O)c2ccnn2C)c(C)c1, the IC50 was 63.6 nM.

`COc1ccc([C@@H](O)c2cc(-c3ncnc4cc(N5CCOCC5)ccc34)c(F)cc2Cl)nn1` + Cc1ccccc1N=Nc1ccc(NC(=O)c2ccnn2C)c(C)c1: the IC50 turned out to be 9260 nM.

On to `COc1cccc2c1C(=O)c1c(O)c3c(c(O)c1C2=O)CC(O)(C(=O)CO)CC3OC1CC(N)C(O)C(C)O1` (stereo not drawn) + Cc1cncc(-c2nc(NCCc3c[nH]c4ccccc34)c3ncn(C(C)C)c3n2)c1, for which the IC50 is under 31.6 nM.

Take `Nc1ncn(C2CC(O)C(CO)O2)c(=O)n1` (stereo not drawn) + Cc1cncc(-c2nc(NCCc3c[nH]c4ccccc34)c3ncn(C(C)C)c3n2)c1: the IC50 is over 1000 nM.

The test is the same for the next values; noted with them: second compound 0.1 µM; first compound 0.00316 µM; stronger effect = lower value.
For `CC1COCCN1c1cc(-c2ccnn2C)c2ccnc(-c3ccn[nH]3)c2n1` (stereo not drawn) + Cc1ccccc1N=Nc1ccc(NC(=O)c2ccnn2C)c(C)c1, the viability, T/C – broadly, the ratio of treated to control – is 99.9%.

As for `Nc1ncn(C2CC(O)C(CO)O2)c(=O)n1` (stereo not drawn) + Cc1cncc(-c2nc(NCCc3c[nH]c4ccccc34)c3ncn(C(C)C)c3n2)c1, the viability, T/C is 116%.

Still in this test, the particulars now being: second compound 0.1 µM; first compound 0.01 µM; stronger effect = lower value.
`CC1COCCN1c1cc(-c2ccnn2C)c2ccnc(-c3ccn[nH]3)c2n1` (stereo not drawn) + Cc1ccccc1N=Nc1ccc(NC(=O)c2ccnn2C)c(C)c1: the viability, T/C is 105%.

As for `Nc1ncn(C2CC(O)C(CO)O2)c(=O)n1` (stereo not drawn) + Cc1cncc(-c2nc(NCCc3c[nH]c4ccccc34)c3ncn(C(C)C)c3n2)c1, the viability, T/C was 86.8%.

The test is the same for the next values; noted with them: second compound 0.1 µM; first compound 0.0316 µM; stronger effect = lower value.
Turning to `CC(C)c1c(-c2ccccc2)nc2c(C#N)c[nH]n2c1=O` + Cc1ccccc1N=Nc1ccc(NC(=O)c2ccnn2C)c(C)c1, the viability, T/C was 97.4%.

For the compound `CC1COCCN1c1cc(-c2ccnn2C)c2ccnc(-c3ccn[nH]3)c2n1` (stereo not drawn) + Cc1ccccc1N=Nc1ccc(NC(=O)c2ccnn2C)c(C)c1, the viability, T/C is 96.7%.

In the case of `COc1ccc([C@@H](O)c2cc(-c3ncnc4cc(N5CCOCC5)ccc34)c(F)cc2Cl)nn1` + Cc1ccccc1N=Nc1ccc(NC(=O)c2ccnn2C)c(C)c1, the viability, T/C was 100%.

Take `COc1cccc2c1C(=O)c1c(O)c3c(c(O)c1C2=O)CC(O)(C(=O)CO)CC3OC1CC(N)C(O)C(C)O1` (stereo not drawn) + Cc1cncc(-c2nc(NCCc3c[nH]c4ccccc34)c3ncn(C(C)C)c3n2)c1: the viability, T/C is 107%.

As for `Nc1ncn(C2CC(O)C(CO)O2)c(=O)n1` (stereo not drawn) + Cc1cncc(-c2nc(NCCc3c[nH]c4ccccc34)c3ncn(C(C)C)c3n2)c1, the viability, T/C was 91.4%.

The same test, now with this note: second compound 0.1 µM; first compound 0.1 µM; stronger effect = lower value.
Regarding `CC(C)c1c(-c2ccccc2)nc2c(C#N)c[nH]n2c1=O` + Cc1ccccc1N=Nc1ccc(NC(=O)c2ccnn2C)c(C)c1, the viability, T/C is 110%.

Consider `CC1COCCN1c1cc(-c2ccnn2C)c2ccnc(-c3ccn[nH]3)c2n1` (stereo not drawn) + Cc1ccccc1N=Nc1ccc(NC(=O)c2ccnn2C)c(C)c1, for which the viability, T/C was 40.1%.

`COc1ccc([C@@H](O)c2cc(-c3ncnc4cc(N5CCOCC5)ccc34)c(F)cc2Cl)nn1` + Cc1ccccc1N=Nc1ccc(NC(=O)c2ccnn2C)c(C)c1: the viability, T/C was 98%.

As to `COc1cccc2c1C(=O)c1c(O)c3c(c(O)c1C2=O)CC(O)(C(=O)CO)CC3OC1CC(N)C(O)C(C)O1` (stereo not drawn) + Cc1cncc(-c2nc(NCCc3c[nH]c4ccccc34)c3ncn(C(C)C)c3n2)c1, the viability, T/C is 78.6%.

With `Nc1ncn(C2CC(O)C(CO)O2)c(=O)n1` (stereo not drawn) + Cc1cncc(-c2nc(NCCc3c[nH]c4ccccc34)c3ncn(C(C)C)c3n2)c1, the viability, T/C is 119%.

Still in this test, the particulars now being: second compound 0.1 µM; first compound 0.316 µM; stronger effect = lower value.
For the compound `CC(C)c1c(-c2ccccc2)nc2c(C#N)c[nH]n2c1=O` + Cc1ccccc1N=Nc1ccc(NC(=O)c2ccnn2C)c(C)c1, the viability, T/C was 104%.

As for `CC1COCCN1c1cc(-c2ccnn2C)c2ccnc(-c3ccn[nH]3)c2n1` (stereo not drawn) + Cc1ccccc1N=Nc1ccc(NC(=O)c2ccnn2C)c(C)c1, the viability, T/C is 10.2%.

Take `COc1ccc([C@@H](O)c2cc(-c3ncnc4cc(N5CCOCC5)ccc34)c(F)cc2Cl)nn1` + Cc1ccccc1N=Nc1ccc(NC(=O)c2ccnn2C)c(C)c1: the viability, T/C is 92.9%.

`COc1cccc2c1C(=O)c1c(O)c3c(c(O)c1C2=O)CC(O)(C(=O)CO)CC3OC1CC(N)C(O)C(C)O1` (stereo not drawn) + Cc1cncc(-c2nc(NCCc3c[nH]c4ccccc34)c3ncn(C(C)C)c3n2)c1: the viability, T/C was 32.6%.
